{
  "source": "patent US20150258096A1",
  "about": "“METHODS AND COMPOSITIONS FOR TREATMENT OF TH2-MEDIATED AND TH17-MEDIATED DISEASES” (THE REGENTS OF THE UNIVERSITY OF CALIFORNIA, priority 2012, published 2015)",
  "key": {"[1]": {"test_system": "WT CD11c^+ BM cells", "assay": "Co-culture of WT CD11c+ BM cells with OT-2 CD4+ T cells, IL-4 by ELISA (pro-Th2 phenotype)", "type": "cell-based, mouse", "details": "H-89 10 μM; CE3F4 50 μM or 25 μM (method); 30 min at 37° C.; FIG. 9b", "procedure": "Cytokine levels in the supernatant were determined using ELISA kits for IL-4, IL-5, IL-13, IL-10, IFNγ, TNFα and IL-17A (eBioscience, La Jolla, Calif.) following the manufacturers' instructions as published^17.\nWT BM-derived CD11c^+ cells were cultured and then incubated with a PKA inhibitor (H-89, 10 μM), with or without pretreatment with pertussis toxin (PTX, 100 μg/ml, 18 h), or with EPAC inhibitor (CE3F4, 25 μM) for 30 min at 37° C., then washed and co-cultured with OT-2 T cells."}, "[2]": {"test_system": "Wild-type B6 mice", "assay": "Immunization with OVA, alum and cAMP-elevating agent; OVA-specific IL-17 (ELISA)", "type": "in vivo, mouse", "details": "i.p. twice two weeks apart, OVA 50 μg/mice with alum; colforsin 1 mg/kg, IBMX 5 mg/kg; spleen cells of day 28 incubated 3 days with OVA; FIG. 16", "protocol": "FIG. 16 cAMP agents provoke IL-17 responses: Wild-type B6 mice were immunized intraperitoneally (i.p.) twice two weeks apart with OVA (50 μg/mice) with and without alum (20 mg/mice), and colforsin (CF; a cAMP elevating drug that is approved for human use in Japan, 1 mg/kg), IBMX (a PDE inhibitor, 5 mg/kg), or solvent only as a control; on day 28, single-cell suspensions were prepared from the spleens and incubated for 3 days with OVA (200 μg/mL) as we described earlier (16); IL-17 levels were then detected (ELISA); *p<0.05 and **p<0.01 compared with OVA/alum-immunized group, n=4/group.\nBased on the data presented above, co-immunization with antigen and a cAMP-elevating agent can induce a Th17 response. To promote stimulation of the same DC with antigen and cAMP agent, both were adsorbed to alum, an adjuvant used in humans (22), and immunized C57BL/6 (B6) mice with the combination."}, "[3]": {"test_system": "Gnas^ΔCD11c CD11c^+ BM cells", "assay": "Co-culture of Gnas^ΔCD11c CD11c+ BM cells with OT-2 CD4+ T cells, IL-4 by ELISA (pro-Th2 phenotype)", "type": "cell-based, mouse", "procedure": "For the inhibition of Th2 response by cAMP, fl/fl or Gnas^ΔCD11c BM-derived CD11c^+ cells were cultured as above, then, incubated with 8-CPT-cAMP (50 μM) for 24 h, washed and then co-cultured with OT-2 T cells."}, "[4]": {"test_system": "CCL2 expression in Gnas^ΔCD11c CD11c^+ BM cells", "assay": "CCL2 mRNA levels (qPCR) in CD11c+ BM cells", "type": "cell-based, mouse", "details": "Gnas^ΔCD11c CD11c+ BM cells incubated with 8-CPT-cAMP 50 μM; FIG. 9g", "protocol": "Isolation of RNA was carried out using an RNeasy Mini Kit (QIAGEN, Valencia, Calif.) according to the manufacturer's instructions. The cDNA was synthesized using Superscript III First-Strand system (Invitrogen). Quantitative PCR analysis was performed as described previously^54. SYBR Green PCR Master Mix was used for real-time PCR (7300 system, Applied Biosystems). Samples were run in triplicate and normalized by a housekeeping gene (mouse GAPDH)."}, "[5]": {"test_system": "WT (B6) and Gnas^ΔCD11c recipient mice", "assay": "Adoptive transfer of OVA-loaded Gnas^ΔCD11c CD11c+ BM cells treated with or without 8-CPT-cAMP", "type": "in vivo, mouse", "details": "BM cells treated in vitro with 50 μM 8-CPT-cAMP before i.n. transfer, 2×10^5 cells/recipient", "protocol": "FIG. 14: Adoptive transfer of CD11c^+ BM cells from Gnas^ΔCD11c mice induces a Th2 bias in vivo, a response that is inhibited by a cell-permeable cAMP analogue: (a) OVA-specific IL-4 response by OT-2 CD4^+ T cells co-cultured with cell-permeable cAMP (8-CPT-cAMP, 50 μM)-treated CD11c^+ BM cells, (b) Protocol of the adoptive transfer. OVA-loaded Gnas^ΔCD11c CD11c^+ BM cells were incubated in the absence and presence of 50 μM 8-CPT-cAMP (CPT) in vitro prior to i.n. transfer to WT (B6 mice) and Gnas^ΔCD11c recipients (2×10^5 cells/recipient), (c) IL-4 levels of anti-CD3/28 Ab-stimulated CD4^+ T cells (spleen) from WT or Gnas^ΔCD11c recipients (ELISA), (d) Serum levels of IgE and IgG1 from WT and Gnas^ΔCD11c mice that received Gnas^ΔCD11c CD11c^+ BM cells loaded with OVA with/without CPT, (e) Lung histology from WT and Gnas^ΔCD11c recipients (magnification ×100, scale bar: 100 μm) (Data are mean±s.e.m, n=3-4 in each group; * p<0.05, ** p<0.01, p<0.001).\nAdoptive transfer of OVA-pulsed Gnas^ΔCD11c CD11c^+ BM cells into mice was performed as described previously^55. […] 1 day after the last OVA challenge, mice were sacrificed and assessed by lung histology, measurement of serum immunoglobulins and cytokine production."}},
  "data": [
    {"smiles": "O=S(=O)(NCCNC/C=C/c1ccc(Br)cc1)c1cccc2cnccc12", "note": "[H-89]", "values": [
      {"measurement": "pro-Th2 phenotype of WT CD11c+ BM cells (IL-4 levels of co-cultured OT-2 CD4+ T cells)", "setting": "[1]", "value": "promoted their pro-Th2 phenotype"}
    ]},
    {"smiles": "C=C[C@@]1(C)CC(=O)[C@]2(O)[C@@]3(C)[C@@H](O)CCC(C)(C)[C@@H]3[C@H](O)[C@H](OC(C)=O)[C@@]2(C)O1", "note": "[colforsin]", "values": [
      {"measurement": "OVA-specific IL-17 response", "setting": "[2]", "value": "provoked a robust OVA-specific IL-17 response"}
    ]},
    {"smiles": "O=P1(O)OCC2OC(n3cnc4c(Nc5ccccc5)ncnc43)C(O)C2O1", "note": "(stereo not drawn) [N6, Phenyladenosine-3′,5′-cyclic monophosphate]", "values": [
      {"measurement": "pro-Th2 phenotype of Gnas^ΔCD11c CD11c+ BM cells (IL-4 levels of co-cultured OT-2 CD4+ T cells)", "setting": "[3]; BM cells incubated with cAMP analogue 50 μM for 24 h, washed, co-cultured with OT-2 T cells, FIG. 9a", "value": "abolished the pro-Th2 phenotype"}
    ]},
    {"smiles": "Nc1ncnc2c1nc(Sc1ccc(Cl)cc1)n2[C@@H]1O[C@@H]2COP(=O)([O-])O[C@H]2[C@H]1O.[Na+]", "note": "[CPT, 8-(4-Chlorophenylthio) adenosine 3′,5′-cyclic monophosphate sodium salt]", "values": [
      {"measurement": "CCL2 expression (mRNA, qPCR)", "setting": "[4]", "value": "decreased CCL2 expression"},
      {"measurement": "IL-4 production by OT-2 CD4+ T cells co-cultured with treated Gnas^ΔCD11c BM cells", "setting": "[3]; 8-CPT-cAMP 50 μM, 24 h, in vitro, FIG. 14a", "value": "abolished the subsequent IL-4 production"},
      {"measurement": "development of Th2 bias in recipients (IL-4 of splenic CD4+ T cells, serum IgE)", "setting": "[5]; FIG. 14c-d", "value": "inhibited development of Th2 bias"},
      {"measurement": "airway inflammation in recipients (lung histology)", "setting": "[5]; FIG. 14e", "value": "inhibited development of Th2 bias and airway inflammation"}
    ]},
    {"smiles": "CC(C)Cn1c(=O)n(C)c(=O)c2[nH]cnc21", "note": "[IBMX, 3-isobutyl-1-methylxanthine]", "values": [
      {"measurement": "OVA-specific IL-17 response", "setting": "[2]", "value": "provoked a robust OVA-specific IL-17 response"}
    ]},
    {"smiles": "CC1CCc2c(cc(Br)c(F)c2Br)N1C=O", "note": "(stereo not drawn) [CE3F4]", "values": [
      {"measurement": "pro-Th2 phenotype of WT CD11c+ BM cells (IL-4 levels of co-cultured OT-2 CD4+ T cells)", "setting": "[1]", "value": "but not with an EPAC inhibitor (CE3F4), promoted their pro-Th2 phenotype"}
    ]}
  ]
}
